Laboratory results as given in patent US20260150841A1, “PYRIDINE COMPOUNDS FOR COMBATTING DIHYDROOROTATE-DEHYDROGENASE INHIBITOR-RESISTANT PHYTOPATHOGENIC FUNGI” (priority 2022, published 2026).
Converted amounts (≈) assume the structure as drawn.

Columns and labels:
Format in all cases: cell-based
[1] = system: Botrytis cinerea mutant G111E; assay: Activity against Botrytis cinerea in the microtiter test, mutant G111E; conditions: Botrytis cinerea, MUTANTG111E, 168 h, read-out: Absolute IC50, G111E, Botrytis cinerea mutant G111E; turbidity at 620 nm after 7 days
Excerpt: (§1) The active substances were formulated separately as a stock solution in dimethyl sulfoxide (DMSO) at a concentration of 10 000 ppm.
(§2) Spontaneous mutants were selected by plating out B. cinerea spores (in the range of 10^7-10^8) on DOB agar plates (3.4 g/l YNB (Becton Dickinson), 10 g/l Ammoniumsulfat, 40 g/l Glucose, 20 g/l Agar), amended with different lethal concentrations of active ingredient. After 7-14 days growing colonies were transferred to DOB agar plates, amended with the same lethal concentrations of active ingredient and then further propagated on Oatmeal agar medium (50 g/l Oatmeal agar (Sigma), 15 g/l Agar (Difco) for sensitivity testing.
(§3) Fungal strains used: • a) Botrytis cinerea (sensitive, wild-type) • b) Various mutants of Botrytis cinerea
(§4) The spores of Botrytis cinerea were harvested with a cotton swab from an Oatmeal agar plate (50 g/l Oatmealagar (Sigma, Art.O-3506), 15 g/l agar, (Difco) and this is dipped in 3 ml of double concentrated DOB-medium (3.4 g/l YNB (Becton Dickinson), 10 g/l Ammoniumsulfat, 40 g/l Glucose, adjusted to pH 7) and the spore suspension is adjusted to a spore density of 3.2×10^4 spores/ml. The compound solutions were diluted from stock solution in (dimethylsulfoxide) DMSO in several steps with sterile deionized water before use. High test concentrations were 50 mg/L (ppm) or 31 mg/L (ppm). Compound solutions were transferred into empty microplates and filled up with an equal amount of spore suspension.
(§5) The antifungal activity was determined by measuring the turbidity of a culture in 96-well microplates in the presence of test compounds after 7 days incubation at 620 nm. A blank value for each concentration (growth media+compound, without spores) are subtracted from the spore suspension. The relative antifungal activity was calculated by comparing the effect of the test compounds with the effect of a DMSO control The results are shown in Table IV (for compounds of general formula I.A), VI (for compounds of general formula I.B), and VIII (for compounds of general formula I.C).
(§6) A compound showing an IC50 (MUT) above the IC50 (WT) and showing an IC50 (MUT) to IC50 (WT) ratio being in a range above 100 is considered unsuitable (“I”) as DHODH inhibitor.
(§7) The absolute IC50-values (concentration of test compound resulting in 50% inhibition of fungal growth) were calculated from the resulting dose-response for each compound and strain.

[2] = system: Botrytis cinerea (sensitive, wild-type); assay: Activity against Botrytis cinerea in the microtiter test, wild type; conditions: 168 h, turbidity at 620 nm after 7 days, read-out: Absolute IC50, wild type
Description: as §1, §3, §4, §5, §7

[3] = system: Sclerotinia sclerotiorum (sensitive, wild-type); assay: Activity against Sclerotinia sclerotiorum in tissue culture plate assay with mycelial plugs, wild type; conditions: 168 h, % growth after 7 days at 18° C., read-out: Absolute IC50, wild type
Description: Fungal strains used: • a) Sclerotinia sclerotiorum (sensitive, wild-type) • b) Mutants of Sclerotinia sclerotiorum
Pure cultures are grown on DOB-agar medium, (3.4 g/l YNB (Becton Dickinson), 10 g/l Ammoniumsulfat, 40 g/l Glucose) for 5-7 days at 18° C. Mycelial plugs (6 mm diame-ter) taken from the margin of the colonies are used as inoculum for the sensitivity test. 500 μl fungicide-amended DOB medium (3.4 g/l YNB (Becton Dickinson), 10 g/l Ammoniumsulfat, 40 g/l Glucose, adjusted to pH 7) are added to each well of 24-well tissue culture plates. Each well is then inoculated with a mycelial plug, with the myce-lium surface up. Two replicate wells are used for each isolate and fungicide concentration. Growth is assed after 7 days incubation at 18° C. in the dark by estimating % growth in the well. IC50-values (concentration of test compound resulting in 50% inhibition of fungal growth) were calculated from the resulting dose-response for each compound and strain.

[4] = system: Botrytis cinerea mutant H108P; assay: Activity against Botrytis cinerea in the microtiter test, mutant H108P; conditions: Botrytis cinerea, MUTANTH108P, 168 h, read-out: Absolute IC50, H108P, Botrytis cinerea mutant H108P; turbidity at 620 nm after 7 days
Excerpt: as §1, §2, §3, §4, §5, §6, §7

[5] = system: Botrytis cinerea mutant V195F; assay: Activity against Botrytis cinerea in the microtiter test, mutant V195F; conditions: Botrytis cinerea, MUTANTV195F, 168 h, read-out: Absolute IC50, V195F, Botrytis cinerea mutant V195F; turbidity at 620 nm after 7 days
Excerpt: as §1, §2, §3, §4, §5, §6, §7

[6] = system: Botrytis cinerea mutant G111V; assay: Activity against Botrytis cinerea in the microtiter test, mutant G111V; conditions: Botrytis cinerea, MUTANTG111V, 168 h, read-out: Absolute IC50, G111V, Botrytis cinerea mutant G111V; turbidity at 620 nm after 7 days
Excerpt: as §1, §2, §3, §4, §5, §6, §7

[7] = system: Botrytis cinerea mutant Y208H; assay: Activity against Botrytis cinerea in the microtiter test, mutant Y208H; conditions: Botrytis cinerea, MUTANTY208H, 168 h, read-out: Absolute IC50, Y208H, Botrytis cinerea mutant Y208H; turbidity at 620 nm after 7 days
Excerpt: as §1, §2, §3, §4, §5, §6, §7

Compound	IC50 [1] [µg/mL]	IC50 [2] [µg/mL]	IC50 [3] [µg/mL]	IC50 [4] [µg/mL]	IC50 [5] [µg/mL]	IC50 [6] [µg/mL]	IC50 [7] [µg/mL]
Cc1cc(C2=NC(C)(C(C)(C)C)Oc3ccccc32)cnc1C(F)F (stereo not shown) [Ex-3]	2.81 (≈ 8.16 µM)	0.19 (≈ 0.552 µM)	0.893 (≈ 2.59 µM)	2.54 (≈ 7.38 µM)	0.75 (≈ 2.18 µM)	3.17 (≈ 9.2 µM)	
COc1ccc2c(c1)OC(C)(C)N=C2c1cnc(C(F)F)c(C)c1 [Ex-35]	2.7 (≈ 8.12 µM)	0.02 (≈ 0.0602 µM)	0.468 (≈ 1.41 µM)	0.29 (≈ 0.873 µM)	0.05 (≈ 0.15 µM)	0.72 (≈ 2.17 µM)	2.02 (≈ 6.08 µM)
